Laboratory results taken from patent publication US20070134657A1, “Methods and compositions relating to gradient exposed cells” (GENERAL HOSPITAL CORPORATION, THE, priority 2002, published 2007).

Assays:
human neutrophils = assay: Effect of signaling pathway inhibitors on directional neutrophil migration in IL-8 gradients (microfluidic device); type: cell-based; settings: pretreated cells; IL-8 gradients in which chemotaxis and fugetaxis were seen
Source text: Microfluidic Migration Assay and Timelapse Microscopy: Neutrophils (1×10^3 cells) were placed uniformly across the migration channel and allowed to migrate under a linear gradient of human Interleukin-8 (72 a.a.; PeproTech, Rocky Hill, N.J.) in IMDM with 0.5% (w/v) FCS flowing at 0.1 mm/sec. […] Brightfield images were taken every 30 seconds using a C4742-95 Hamamatsu digital camera (Hamamatsu, Japan) controlled by IPLab 3.6.1 (Scanalytics, Fairfax, Va.). Cell movement was always observed at a set point along the migration channel. Gradients were also calibrated at this set point. Migration was quantified for all cells across the gradient.
Signaling Pathway Inhibitors: Cells were treated with pertussis toxin (100 ng/mL; 30 minutes at 37° C.), wortmannin (1 μM, 10 μM; 20 minutes at 37° C., 8-Br-cAMP (1 mM; 15 minutes at room temperature), 8-Br-cGMP (1 mM; 15 minutes at room temperature) (Sigma-Aldrich), or the CXCR2 non-peptide antagonist, SB225002 (1 pM, 100 pM, 1 nM, or 1 μM for 15 minutes at 37° C.; Calbiochem, Calif.). Immediately after treatment cells were seeded in migration channel of the microfluidic device and allowed to migrate as described above.
Since receptor occupancy is known to play a role in directional decision making and gradient sensing in the context of chemotaxing eukaryotic cells, it was postulated that chemokine receptor occupancy by a chemokine might also play a critical role in the decision of a cell to move up or down a chemokine gradient. Thus, a SB25002, the specific non-peptide antagonist of the IL-8 receptor, CXCR2 was utilized to examine this postulate. Neutrophils were pretreated with SB225002 at concentrations between 1 pM and 1 μM and then exposed to 0 to 1.2 μM gradients of IL-8 in microfabricated devices as described above. Videos of cell migration were analysed using MetaMorph and MathLab software to generate normalized angular frequencies determined for cells migrating in each of the three sectors of the gradient. The absence of inhibitor generates a normalized angular frequency of 1.0 whereas inhibition of fugetactic or chemotactic angular frequencies results in a normalized frequency of <1.0 and augmentation of either directional response results in a value greater than 1. This analysis allows to precisely quantitate the effect of a given concentration of inhibitor on the directional decision of the cell to move up or down a gradient. […] Furthermore, although IL-8 binds to both CXCR2 and CXCR1 on the cell surface, of the human neutrophil bi-directional signaling was evidently critically dependent on CXCR2.
It had been previously shown that the signaling pathway for chemotaxis is distinct from that for chemorepulsion or fugetaxis. […] The study of neutrophil migration in microfabricated devices allows to examine precisely the effects of these inhibitors on quantitative parameters of cell migration including the directional bias of cells in the context of precisely defined and stable chemokine gradients. Primary human neutrophils were pretreated with known inhibitors of the chemokine signal transduction pathway including pertussis toxin, wortmannin, genistein, 8-Br-cAMP and 8-Br-cGMP and then exposed to IL-8 gradients in which chemotaxis and fugetaxis were seen. The effect of the inhibitor on directional migration towards or away from the chemokine was quantitated by determining the directional motility index of cells migrating in the context of these gradients. Movement vector angles corresponding to movement up the gradient (30 to 150 degrees—see FIG. 13) were defined as chemotactic and measured movement vector angles corresponding to movement down the gradient (210 to 330 degrees—see figure) were defined as fugetactic. The directional choice of cells to move up or down a chemokine gradient were therefore compared in the presence and the absence of an inhibitor. […]

T-cell = settings: response to SDF-1; cited from earlier work

Structure (SMILES)	effect on neutrophil chemotaxis (angular frequency, movement up the gradient) (human neutrophils)	effect on neutrophil fugetaxis (angular frequency, movement down the gradient) (human neutrophils)	sensitivity of T-cell fugetaxis to inhibition, compared with chemotaxis (T-cell)	sensitivity of T-cell chemotaxis to inhibition, compared with fugetaxis (T-cell)
Nc1ncnc2c1nc(Br)n2[C@@H]1O[C@@H]2COP(=O)(O)O[C@H]2[C@H]1O [8-Br-cAMP]	augmented	selectively inhibited	differentially more sensitive to inhibition	
O=c1c(-c2ccc(O)cc2)coc2cc(O)cc(O)c12 [genistein]				differentially more sensitive to inhibition
